# Measured values from patent publication US20070128217A1 (priority 2003, published 2007).
# Key:
# [1] = test system: antibodies in sera from SARS patients (sera 1a, 1b, 2, 6, 37, 62, London, SARS-yellow, SARS-green); format: binding, human; parameters: Binding of serum 6 to linear peptides of protein X1 of SARS-CoV Urbani / Binding of serum 37 to linear peptides of protein X1 of SARS-CoV Urbani / Binding of serum 6 to looped/cyclic peptide (PEPSCAN-ELISA) / Binding of serum 37 to looped/cyclic peptide (PEPSCAN-ELISA) / Binding of serum 37 to looped/cyclic peptides of protein X1 of SARS-CoV Urbani / Binding of serum 6 to linear peptides of protein X2 / Binding of serum 37 to linear peptides of protein X2 / Binding of serum 37 to looped/cyclic peptides of protein X2 of SARS-CoV Urbani / Binding of serum 6 to linear peptides of protein M of SARS-CoV Urbani / Binding of serum 37 to linear peptides of protein M of SARS-CoV Urbani / Binding of serum 6 to looped/cyclic peptides of protein M of SARS-CoV Urbani / Binding of serum 37 to looped/cyclic peptides of protein M of SARS-CoV Urbani / Binding of serum 6 to linear peptides of protein X3 of SARS-CoV Urbani / Binding of serum 37 to linear peptides of protein X3 of SARS-CoV Urbani / Binding of serum 37 to looped/cyclic peptides of protein X3 of SARS-CoV Urbani / Binding of serum 6 to linear peptides of protein X4 of SARS-CoV Urbani / Binding of serum 37 to linear peptides of protein X4 of SARS-CoV Urbani / Binding of serum 37 to looped/cyclic peptides of protein X4 of SARS-CoV Urbani / Binding of serum 6 to linear peptides of protein X5 of SARS-CoV Urbani / Binding of serum 37 to linear peptides of protein X5 of SARS-CoV Urbani / Binding of serum 37 to looped/cyclic peptides of protein X5 of SARS-CoV Urbani / Binding of serum 6 to linear peptides of protein N of SARS-CoV Urbani / Binding of serum 37 to linear peptides of protein N of SARS-CoV Urbani / Binding of serum 6 to linear peptide (PEPSCAN-ELISA) / Binding of serum 1a to looped/cyclic peptides of protein N of SARS-CoV Urbani / Binding of serum 1b to looped/cyclic peptides of protein N of SARS-CoV Urbani / Binding of serum 2 to looped/cyclic peptides of protein N of SARS-CoV Urbani / Binding of serum 6 to looped/cyclic peptides of protein N of SARS-CoV Urbani / Binding of serum 37 to looped/cyclic peptides of protein N of SARS-CoV Urbani / Binding of serum 62 to looped/cyclic peptides of protein N of SARS-CoV Urbani / Binding of serum London to looped/cyclic peptides of protein N of SARS-CoV Urbani / Binding of serum SARS-green to looped/cyclic peptides of protein N of SARS-CoV Urbani: unit not given here
# [2] = test system: recombinant human anti-SARS-CoV antibody 03-018; format: binding; parameters: Binding of antibody 03-018 to linear peptides of the N protein of SARS-CoV Urbani / Binding of antibody 03-018 to looped/cyclic peptides of the N protein of SARS-CoV Urbani: unit not given here
# [3] = test system: rabbit serum obtained by immunizing a rabbit with the SARS-CoV strain Frankfurt 1; format: binding; parameters: Binding of a rabbit serum to linear peptides / Binding of a rabbit serum to looped peptides / Rabbit serum linear peptides / Rabbit serum looped peptides / Binding of a rabbit serum to linear peptides of protein N of SARS-CoV Urbani (Rabbit serum linear peptides) / Binding of a rabbit serum to looped/cyclic peptides of protein N of SARS-CoV Urbani (Rabbit serum looped peptides): unit not given here
# [4] = test system: control sera (pooled serum of ten healthy LUMC hospital workers; commercial negative donor pooled serum from the Dutch bloodbank); format: binding, human; parameters: Binding of Control serum LUMC to linear peptides / Binding of Control serum Blood-bank to linear peptides / Binding of Control serum LUMC to looped peptides / Binding of Control Serum Blood-Bank to Looped peptides / Binding of Control serum LUMC to linear peptides of the protein M of SARS-CoV Urbani / Binding of Control serum Blood-bank to linear peptides of the protein M of SARS-CoV Urbani / Binding of Control serum LUMC to looped peptides of the protein M of SARS-CoV Urbani / Binding of Control Serum Blood-Bank to Looped peptides of the protein M of SARS-CoV Urbani: unit not given here
Sequence,Binding of serum 1a to looped/cyclic peptides of protein N of SARS-CoV Urbani [1],Binding of serum 1b to looped/cyclic peptides of protein N of SARS-CoV Urbani [1],Binding of serum 2 to looped/cyclic peptides of protein N of SARS-CoV Urbani [1],Binding of serum 6 to looped/cyclic peptides of protein N of SARS-CoV Urbani [1],Binding of serum 37 to looped/cyclic peptides of protein N of SARS-CoV Urbani [1],Binding of serum 62 to looped/cyclic peptides of protein N of SARS-CoV Urbani [1],Binding of serum London to looped/cyclic peptides of protein N of SARS-CoV Urbani [1],Binding of serum SARS-green to looped/cyclic peptides of protein N of SARS-CoV Urbani [1],Binding of serum SARS-yellow to looped/cyclic peptides of protein N of SARS-CoV Urbani [1],Binding of antibody 03-018 to linear peptides of the N protein of SARS-CoV Urbani [2],Binding of antibody 03-018 to looped/cyclic peptides of the N protein of SARS-CoV Urbani [2],Binding of a rabbit serum to linear peptides of protein N of SARS-CoV Urbani (Rabbit serum linear peptides) [3],Binding of a rabbit serum to looped/cyclic peptides of protein N of SARS-CoV Urbani (Rabbit serum looped peptides) [3],also measured
AFFGMSRIGMEVTPS,0.4,0.3,0.4,0.2,0.6,0.6,0.4,0.4,0.5,0.1,0.2,0.1,0.5,Binding of serum 1a to linear peptides of protein N of SARS-CoV Urbani [1]: 0.3; Binding of serum 1b to linear peptides of protein N of SARS-CoV Urbani [1]: 0.1; Binding of serum 2 to linear peptides of protein N of SARS-CoV Urbani [1]: 0.2; Binding of serum 6 to linear peptides of protein N of SARS-CoV Urbani [1]: 0.2; Binding of serum 37 to linear peptides of protein N of SARS-CoV Urbani [1]: 0.6; Binding of serum 62 to linear peptides of protein N of SARS-CoV Urbani [1]: 0.7; Binding of serum London to linear peptides of protein N of SARS-CoV Urbani [1]: 0.5; Binding of serum SARS-green to linear peptides of protein N of SARS-CoV Urbani [1]: 0.2; Binding of serum SARS-yellow to linear peptides of protein N of SARS-CoV Urbani [1]: 0.5; Control Serum Blood-Bank Looped peptides [4]: 0.6; Control serum Blood-bank linear peptides [4]: 0.7; Control serum LUMC linear peptides [4]: 0.6; Control serum LUMC looped peptides [4]: 0.8
ALALLLLDRLNQLES,0.4,0.2,0.4,0.2,0.8,0.7,0.5,0.4,0.5,0.1,0.3,0.2,0.6,Binding of serum 1a to linear peptide (PEPSCAN-ELISA) [1]: 0.3; Binding of serum 1b to linear peptide (PEPSCAN-ELISA) [1]: 0.2; Binding of serum 2 to linear peptide (PEPSCAN-ELISA) [1]: 0.1; Binding of serum 6 to linear peptide (PEPSCAN-ELISA) [1]: 0.2; Binding of serum 37 to linear peptide (PEPSCAN-ELISA) [1]: 0.5; Binding of serum 62 to linear peptide (PEPSCAN-ELISA) [1]: 0.6; Binding of serum London to linear peptide (PEPSCAN-ELISA) [1]: 0.5; Binding of serum SARS-green to linear peptide (PEPSCAN-ELISA) [1]: 0.4; Binding of serum SARS-yellow to linear peptide (PEPSCAN-ELISA) [1]: 0.5; Binding of Control Serum Blood-Bank to Looped peptides [4]: 0.8; Binding of Control serum Blood-bank to linear peptides [4]: 0.7; Binding of Control serum LUMC to linear peptides [4]: 0.7; Binding of Control serum LUMC to looped peptides [4]: 0.8
